Literature values in article PMC10261210 (Cancer Chemotherapy and Pharmacology, 2023).

System: relapsed or progressive LGGs harboring BRAF alterations
Design: method as in ref 33 = [33]; 33. Kilburn L, Landi D, Leary S, Ziegler DS, Baxter P, Franson A, McCowage G, Waanders AJ, Van der Lugt J, Yalon Oren M, Gerber NU, Gottardo NG, Khuong-Quang D-A, Nysom K, Bailey S, Hernáiz Driever P
Details: interim analysis, first 25 enrolled patients with ≥ 6 months of follow-up, QW monotherapy; cited from earlier work

For `C[C@@H](NC(=O)c1ncnc(N)c1Cl)c1ncc(C(=O)Nc2cc(C(F)(F)F)c(Cl)cn2)s1` [tovorafenib], the clinical benefit rate is listed as 91% and the overall response rate is listed as 64%.
